Assays:
[1] = target: T1, FGF-1 (flg) receptor tyrosine kinase (FGFr) (Homo sapiens, UniProt P11362); assay: FGF Receptor Tyrosine Kinase Assay; assay type: biochemical; conditions: glutamate-tyrosine co-polymer substrate; read-out: Inhibition of Tyrosine Kinases: IC50 in parenthesis FGFr
T1 construct: amplify a fragment of DNA that codes for the intracellular tyrosine kinase domain; made in house; host or cells: SF9 insect cells (baculovirus); crude cell lysate used
Description: (§1) PDGF and FGF Receptor Tyrosine Kinase Assays
(§2) Full-length cDNAs for the mouse PDGF-β and human FGF-1 (flg) receptor tyrosine kinases are obtained from J. Escobedo and prepared as described in J. Biol. Chem. 1991; 262:1482-1487. PCR primers are designed to amplify a fragment of DNA that codes for the intracellular tyrosine kinase domain. The fragment is inserted into a baculovirus vector, cotransfected with AcMNPV DNA, and the recombinant virus isolated. SF9 insect cells are infected with the virus to overexpress the protein, and the cell lysate is used for the assay. Assays are performed in 96-well plates (100 μL/incubation/well), and conditions are optimized to measure the incorporation of ^32P from γ^32P-ATP into a glutamate-tyrosine co-polymer substrate. Briefly, to each well is added 82.5 μL of incubation buffer containing 25 mM Hepes (pH 7.0), 150 mM NaCl, 0.1% Triton X-100, 0.2 mM PMSF, 0.2 mM Na3VO4, 10 mM MnCl2, and 750 μg/mL of Poly (4:1) glutamate-tyrosine followed by 2.5 μL of inhibitor and 5 μL of enzyme lysate (7.5 μg/μL FGF-TK or 6.0 μg/μL PDGF-TK) to initiate the reaction. Following a 10-minute incubation at 25° C. […] of γ^32P-ATP (0.4 μCi plus 50 μM ATP) is added to each well, and samples are incubated for an additional 10 minutes at 25° C. The reaction is terminated by the addition of 100 μL of 30% trichloroacetic acid (TCA) containing 20 mM sodium pyrophosphate and precipitation of material onto glass fiber mats (Wallac). Filters are washed 3 times with 15% TCA containing 100 mM sodium pyrophosphate, and the radioactivity retained on the filters counted in a Wallac 1250 Betaplate reader. Nonspecific activity is defined as radioactivity retained on the filters following incubation of samples with buffer alone (no enzyme). Specific enzymatic activity (enzyme plus buffer) is defined as total activity minus nonspecific activity.

cdk2/cyclinA = cdk2/cyclinA (Homo sapiens, UniProt P24941); assay: Cyclin dependent kinase 2 assay (cdk2/cyclinA), 32P incorporation, filter plate; assay type: biochemical; conditions: retinoblastoma substrate, 12 mM ATP, 25° C., 15 minutes; read-out: Inhibition of Cdks: IC50 Cdk2/A
Method in brief: (§3)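 Radiometric filter assay: 20 ng cdk1/B, cdk2/A or cdk2/E with 1 μg retinoblastoma substrate in 20 mM Tris pH 7.4, 50 mM NaCl, 1 mM DTT, 10 mM MgCl2, […] plus [32P]ATP. Started with ATP, 15 min at 25 °C, stopped and precipitated with TCA; 32P incorporation counted for IC50.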

cdk1/cyclinB = cdk1/cyclinB (Homo sapiens, UniProt P06493); assay: Cyclin dependent kinase 1 assay (cdk1/cyclinB), 32P incorporation, filter plate; assay type: biochemical; conditions: retinoblastoma substrate, 12 mM ATP, 25° C., 15 minutes; read-out: Inhibition of Cdks: IC50 Cdk1/B
Method in brief: as §3

cdk4/cyclinD = cdk4/cyclinD (Homo sapiens, UniProt P11802); assay: Cyclin Dependent Kinase 4 (cdk-4) Assay, 32P incorporation, filter plate; assay type: biochemical; conditions: retinoblastoma substrate, 25 μM ATP, 25° C., 15 minutes; read-out: Inhibition of Cdks: IC50 Cdk4D
Method in brief: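 Filter-plate radiometric assay for IC50s: 20 ng cdk4 with 1 μg retinoblastoma substrate in 20 mM TRIS pH 7.4, 50 mM NaCl, 1 mM DTT, 10 mM MgCl2. Started with 25 μM ATP plus [32P]ATP and run 15 min at 25° C, then stopped with TCA. Precipitated substrate was washed and 32P incorporation counted.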

cdk2/cyclinE = cdk2/cyclinE (Homo sapiens, UniProt P24941); assay: Cyclin dependent kinase 2 assay (cdk2/cyclinE), 32P incorporation, filter plate; assay type: biochemical; conditions: retinoblastoma substrate, 12 mM ATP, 25° C., 15 minutes; read-out: Inhibition of Cdks: IC50 Cdk2/E
Method in brief: as §3

[2] = target: T2, PDGF-β receptor tyrosine kinase (PDGFr) (Mus musculus, UniProt P05622); assay: PDGF Receptor Tyrosine Kinase Assay; assay type: biochemical; conditions: glutamate-tyrosine co-polymer substrate; read-out: Inhibition of Tyrosine Kinases: IC50 in parenthesis PDGFr
T2 construct: amplify a fragment of DNA that codes for the intracellular tyrosine kinase domain; made in house; host or cells: SF9 insect cells (baculovirus); crude cell lysate used
Description: as §1, §2

T2 sequence (P05622 599-961 limits assumed): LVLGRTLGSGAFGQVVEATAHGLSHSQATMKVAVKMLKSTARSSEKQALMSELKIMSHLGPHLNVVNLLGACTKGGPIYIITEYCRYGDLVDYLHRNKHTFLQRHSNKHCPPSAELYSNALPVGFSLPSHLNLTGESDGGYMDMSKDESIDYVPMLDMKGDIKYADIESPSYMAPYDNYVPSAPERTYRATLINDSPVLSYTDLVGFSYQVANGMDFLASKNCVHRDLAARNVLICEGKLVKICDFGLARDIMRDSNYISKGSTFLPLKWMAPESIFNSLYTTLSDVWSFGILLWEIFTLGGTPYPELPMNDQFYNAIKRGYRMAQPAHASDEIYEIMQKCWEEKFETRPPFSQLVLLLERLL
T1 sequence (P11362 478-767 limits assumed): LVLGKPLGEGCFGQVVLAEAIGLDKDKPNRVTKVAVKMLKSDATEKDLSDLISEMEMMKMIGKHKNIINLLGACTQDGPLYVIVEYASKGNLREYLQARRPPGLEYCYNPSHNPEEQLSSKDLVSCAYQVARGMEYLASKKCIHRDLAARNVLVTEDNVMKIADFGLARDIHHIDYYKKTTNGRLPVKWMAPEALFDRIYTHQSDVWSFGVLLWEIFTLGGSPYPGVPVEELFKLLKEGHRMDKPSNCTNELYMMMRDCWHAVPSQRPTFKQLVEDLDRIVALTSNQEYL
cdk4/cyclinD, sequence (P11802 whole entry, species assumed): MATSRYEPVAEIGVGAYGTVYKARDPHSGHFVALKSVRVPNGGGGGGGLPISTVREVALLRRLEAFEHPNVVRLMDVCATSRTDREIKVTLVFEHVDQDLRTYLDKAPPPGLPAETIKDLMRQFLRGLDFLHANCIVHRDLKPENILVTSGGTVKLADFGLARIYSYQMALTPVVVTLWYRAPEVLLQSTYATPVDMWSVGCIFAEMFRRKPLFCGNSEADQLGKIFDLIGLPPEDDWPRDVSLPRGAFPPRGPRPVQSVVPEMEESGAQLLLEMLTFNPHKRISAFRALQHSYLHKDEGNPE
cdk4/cyclinD, sequence (P24385 whole entry partner, species assumed): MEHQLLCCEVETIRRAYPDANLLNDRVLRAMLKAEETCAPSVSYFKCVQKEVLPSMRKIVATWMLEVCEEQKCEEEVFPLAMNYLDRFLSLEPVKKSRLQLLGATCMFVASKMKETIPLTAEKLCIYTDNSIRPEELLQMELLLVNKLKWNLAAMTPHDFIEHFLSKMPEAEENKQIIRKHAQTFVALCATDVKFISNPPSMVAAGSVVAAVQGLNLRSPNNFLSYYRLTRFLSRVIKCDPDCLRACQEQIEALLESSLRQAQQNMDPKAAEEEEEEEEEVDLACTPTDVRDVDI
cdk1/cyclinB, sequence (P06493 whole entry, species assumed): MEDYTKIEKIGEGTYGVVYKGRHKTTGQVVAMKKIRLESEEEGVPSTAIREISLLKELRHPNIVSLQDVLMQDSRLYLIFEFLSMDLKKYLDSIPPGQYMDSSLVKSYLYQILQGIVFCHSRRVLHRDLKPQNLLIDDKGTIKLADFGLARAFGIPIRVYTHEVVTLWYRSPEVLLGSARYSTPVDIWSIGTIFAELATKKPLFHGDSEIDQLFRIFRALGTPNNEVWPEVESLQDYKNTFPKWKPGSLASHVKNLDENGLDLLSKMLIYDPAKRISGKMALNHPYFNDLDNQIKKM
cdk1/cyclinB, sequence (P14635 whole entry partner, species assumed): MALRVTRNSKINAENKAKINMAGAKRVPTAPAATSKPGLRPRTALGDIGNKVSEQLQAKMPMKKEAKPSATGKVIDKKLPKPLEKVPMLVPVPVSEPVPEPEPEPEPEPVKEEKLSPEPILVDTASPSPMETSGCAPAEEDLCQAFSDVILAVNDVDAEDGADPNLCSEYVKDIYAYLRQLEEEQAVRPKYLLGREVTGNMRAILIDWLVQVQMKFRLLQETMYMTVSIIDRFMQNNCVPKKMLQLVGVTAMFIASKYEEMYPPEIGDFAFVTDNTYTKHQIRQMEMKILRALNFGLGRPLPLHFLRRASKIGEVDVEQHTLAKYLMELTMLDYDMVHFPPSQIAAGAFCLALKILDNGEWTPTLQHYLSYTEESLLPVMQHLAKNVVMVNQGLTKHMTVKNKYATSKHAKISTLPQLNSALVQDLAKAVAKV

Which IC50 [1] does the source give for CN(C(=O)NC1CCCCC1)c1ccc2cnc(Nc3ccc(N4CCNCC4)cc3)nc2n1 [Compound 70, 3-Cyclohexyl-1-methyl-1-[2-(4-piperazin-1-yl-phenylamino)-pyrido[2,3-d]pyrimidin-7-yl]-urea] here?
The IC50 was 1150 nM.

What about the IC50 (cdk2/cyclinA) of the same compound?
The IC50 was 697 nM.

And the melting point?
The melting point was 169 to 175 °C.

And the IC50 (cdk1/cyclinB)?
Its IC50 is 1450 nM.

What about the IC50 (cdk4/cyclinD) of the same compound?
The IC50 was 17 nM.

And the IC50 (cdk2/cyclinE)?
Its IC50 is 530 nM.

And the IC50 [2]?
Its IC50 is 536 nM.

From patent US7053070B2, “Pyrido[2,3-d]pyrimidine-2,7-diamine kinase inhibitors” (Warner-Lambert Company, priority 2000, dated 2006)
